The values below come from patent US11192889B2, “Tetrahydronaphthyridinepentanamide integrin antagonists” (The Rockefeller University, priority 2016, dated 2021).

Common to all, as to assay type: cell-based
The test system of assay [1] is HEK-293-αVβ3 cells. Briefly: AP5 Binding Assay. To be noted: 10 mM EDTA; average±SD of 17 experiments. From the text: (§1) HEK-293 Cells Expressing αVβ3. HEK-293 cells were transfected using lipofectamine 2000 (Invitrogen #11668030) with the cDNA for αV using the pEF1/V5-His A vector and the cDNA for β3 using the vector pcDNA3.1. Cells expressing αVβ3 were identified by their reaction with murine monoclonal antibodies (mAbs) LM609 and 7E3, and stable cell lines were established by repetitive sorting using LM609. […] HEK-293-αVβ3 cells for assays are counted in an automated cell counter (ADVIA 120) and adjusted to values appropriate for each assay.
(§2) AP5 Binding Assay. HEK-293-αVβ3 cells are harvested using 0.05% trypsin 0.5 mM EDTA, washed with HBMT once, and resuspended in HBMT containing 1 mM Mg2+ and 2 mM Ca2+. The cells are counted and adjusted to 0.5×10^6 cells per sample. The compound to be tested and fluorescently labeled mAb AP5 (either Alexa 488 or Alexa 674; 10 μg/mL) are added and incubated for 30 minutes at 37° C. The cells are then washed and analyzed by flow cytometry (BD FACSCalibur) at the appropriate wavelength for detecting the AP5 fluorophore. In each assay, cilengitide (1 μM) and 10 mM EDTA are included as positive controls and untreated cells are used as the negative control. The concentration of the test compound required to induce the expression of 50% of the AP5 expression induced by cilengitide is calculated and defined as the EC50. The EC50 for cilengitide was determined based on the expression induced by EDTA.

Assay [2] addresses T1, HEK-293-αVβ3 cells (Homo sapiens, UniProt P05106+P06756). Briefly: AP5 Binding Assay. The conditions noted are these: for activation at 10 µM: relative to AP5 expression induced by cilengitide, read-out: AP5 expression induced at the highest concentration; for EC50: concentration inducing 50% of the AP5 expression induced by 1 μM cilengitide.
Text: as §1, §2

Assay [3] concerns the target T1, HEK-293-αVβ3 cells. Nature of the assay: αVβ3 Cell Adhesion to Fibrinogen Assay. Further details: IC50; other: dose reducing by 50% the adhesion of HEK-293-αVβ3 cells to fibrinogen; untreated cells 100% adhesion, 10 mM EDTA 0%. The conditions noted are these: dose reducing by 50% the adhesion of HEK-293-αVβ3 cells to fibrinogen; separate determinations listed.
Text: as §1
αVβ3 Cell Adhesion to Fibrinogen Assay. Polystyrene 96-well microtiter plates (Costar, 3590) are precoated with 3.5 μg/mL of purified fibrinogen (Enzyme Research Laboratories) in 0.15 M NaCl, 0.01 M Tris/HCL, pH 7.4 for 1 hour at 37° C. The wells are then washed and incubated with HEPES-Buffered Modified Tyrode's solution (HBMT; 0.128 M NaCl, 10 mM HEPES, 12 mM NaHCO3, 0.4 mM NaH2PO4, 2.7 mM KCl, 0.35% bovine serum albumin (Fisher), 0.1% glucose, pH 7.4) for 1 hour at room temperature or overnight at 4° C. Wells are washed with HBMT containing 1 mM Mg2+ and 2 mM Ca2+ and then 50 μL of HEK-293-αVβ3 cells that have been pretreated with the compound to be tested for 20 minutes at room temperature are added to each well at a concentration of 3,000 cells/μL. After 30-32 minutes the wells are washed with HBMT containing Ca2+ and Mg2+ three times and then the adherent cells are lysed and the acid phosphatase activity that is released is measured by: 1. adding phosphatase substrate (Sigma EC 224-246-5) at 2 mg/mL in 0.1 M Na citrate, pH 5.6, 0.1% triton X-100 for 1 hour at room temperature; 2. stopping the reaction by adding 50 μL of 2 M NaOH; and 3. analyzing the samples in a spectrophotometer at 405 nm. In each assay, 10 mM EDTA is used as a positive control and untreated cells are used as a negative control. The IC50 is the dose of test compound that reduces by 50% the adhesion of the HEK-293-αVβ3 cells, taking the results with untreated cells as 100% and the results in the presence of EDTA as 0%. In some instances more than one IC50 determination was made, in which case, results of separate determinations are reported. IC50's were not determined for all compounds in the table; for some of these test compounds the inhibition at specific doses are reported. In some instances, the test compound produced a greater reduction than 10 mM EDTA, and these are shown as negative numbers.

Values joined by “and” are separate entries in the source; they are usually repeats but may differ in a detail not shown here. Identical values can stand only once. Bounds are passed on as bounds.

Broadly, the EC50 is the concentration at which the effect is half-maximal. One may read the IC50 as the concentration at which inhibition is half-maximal. A low value points to inhibition by little substance.

T1 sequence (P05106 whole entry): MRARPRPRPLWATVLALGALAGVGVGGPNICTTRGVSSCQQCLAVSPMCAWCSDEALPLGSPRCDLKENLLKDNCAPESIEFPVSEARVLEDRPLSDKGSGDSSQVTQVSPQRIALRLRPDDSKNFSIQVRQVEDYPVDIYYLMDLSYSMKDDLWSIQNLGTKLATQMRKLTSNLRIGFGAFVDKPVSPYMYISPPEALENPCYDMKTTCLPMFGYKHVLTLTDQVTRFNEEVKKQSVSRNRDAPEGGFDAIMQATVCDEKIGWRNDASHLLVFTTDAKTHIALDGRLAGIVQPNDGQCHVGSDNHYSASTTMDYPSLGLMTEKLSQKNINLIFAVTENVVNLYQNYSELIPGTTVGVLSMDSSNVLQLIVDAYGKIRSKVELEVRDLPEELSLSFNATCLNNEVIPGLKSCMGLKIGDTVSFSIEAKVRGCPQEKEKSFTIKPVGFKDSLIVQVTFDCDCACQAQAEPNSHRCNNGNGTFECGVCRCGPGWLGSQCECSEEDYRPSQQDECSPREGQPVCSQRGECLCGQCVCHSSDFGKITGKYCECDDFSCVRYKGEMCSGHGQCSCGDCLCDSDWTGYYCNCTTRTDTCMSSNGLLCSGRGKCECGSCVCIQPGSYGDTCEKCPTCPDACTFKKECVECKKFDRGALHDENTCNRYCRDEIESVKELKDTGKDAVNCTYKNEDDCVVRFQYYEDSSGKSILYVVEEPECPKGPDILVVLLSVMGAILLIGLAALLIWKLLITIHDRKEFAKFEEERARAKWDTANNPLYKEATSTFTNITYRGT
T1 sequence (P06756 whole entry): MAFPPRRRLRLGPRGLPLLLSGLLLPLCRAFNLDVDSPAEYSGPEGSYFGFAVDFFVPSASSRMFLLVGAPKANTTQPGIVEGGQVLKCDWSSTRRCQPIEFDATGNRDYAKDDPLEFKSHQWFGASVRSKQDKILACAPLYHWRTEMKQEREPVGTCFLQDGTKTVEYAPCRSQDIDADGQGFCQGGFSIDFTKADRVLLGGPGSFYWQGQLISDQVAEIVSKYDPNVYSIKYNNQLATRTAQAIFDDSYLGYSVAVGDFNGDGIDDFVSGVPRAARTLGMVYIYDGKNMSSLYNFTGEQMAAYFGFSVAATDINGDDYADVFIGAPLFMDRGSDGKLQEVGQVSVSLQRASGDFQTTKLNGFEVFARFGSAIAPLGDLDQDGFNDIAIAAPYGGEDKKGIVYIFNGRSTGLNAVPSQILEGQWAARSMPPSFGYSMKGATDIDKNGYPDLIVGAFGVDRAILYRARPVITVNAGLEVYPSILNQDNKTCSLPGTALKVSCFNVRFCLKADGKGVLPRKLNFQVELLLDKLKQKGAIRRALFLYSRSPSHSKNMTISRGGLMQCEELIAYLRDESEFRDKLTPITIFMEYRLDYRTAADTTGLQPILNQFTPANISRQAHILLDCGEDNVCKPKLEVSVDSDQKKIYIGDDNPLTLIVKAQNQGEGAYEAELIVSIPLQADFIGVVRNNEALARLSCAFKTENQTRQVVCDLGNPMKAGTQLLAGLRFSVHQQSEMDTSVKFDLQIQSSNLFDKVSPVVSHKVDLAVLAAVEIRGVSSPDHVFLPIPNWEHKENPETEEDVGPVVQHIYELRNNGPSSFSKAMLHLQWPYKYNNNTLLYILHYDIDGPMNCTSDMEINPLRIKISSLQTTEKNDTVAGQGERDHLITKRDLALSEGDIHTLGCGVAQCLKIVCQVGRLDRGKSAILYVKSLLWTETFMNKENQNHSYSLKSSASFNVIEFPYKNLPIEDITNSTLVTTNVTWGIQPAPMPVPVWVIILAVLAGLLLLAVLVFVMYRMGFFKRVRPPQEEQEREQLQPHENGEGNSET

For `O=C(O)CN(CCN(CC(=O)O)CC(=O)O)CC(=O)O` [EDTA, reference compound], the AP5 expression with HEK-293-αVβ3 cells [1] is 21.8±5.9 arbitrary fluorescence units.
Turning to `O=C(CCCCc1ccc2c(n1)NCCC2)NCCC(NC(=O)OCC1CCC(F)(F)CC1)C(=O)O` (stereo not shown) [Example 64], on HEK-293-αVβ3 cells [2], the activation at 10 µM is 21% and the EC50 was over 10000 nM. Besides, the IC50 at HEK-293-αVβ3 cells [3] was 248 nM and 359 nM.
`O=C(CCCCc1nc2c(cc1C1CC1)CCCN2)NCCC(Nc1nc2ccccc2o1)C(=O)O` (stereo not shown) [Example 83, 2-(1,3-benzoxazol-2-ylamino)-4-[5-(3-cyclopropyl-5,6,7,8-tetrahydro-1,8-naphthyridin-2-yl)pentanoylamino]butanoic acid]: on HEK-293-αVβ3 cells [2], the activation at 10 µM stood at 5% and the EC50 was over 10000 nM. On HEK-293-αVβ3 cells [3], this compound showed an IC50 of 128 nM.
As for `O=C(CCCCc1ccc2c(n1)NCCC2)NCCC(C(=O)O)c1ccccc1` (stereo not shown) [Example 9, 2-Phenyl-4-[5-(5,6,7,8-tetrahydro-1,8-naphthyridin-2-yl)pentanoylamino]butanoic acid], at HEK-293-αVβ3 cells [2], the activation at 10 µM was 11% and the EC50 is over 10000 nM. The IC50 at HEK-293-αVβ3 cells [3] is 3720 nM and 1770 nM.
For the compound `O=C(CCCCc1ccc2c(n1)NCCC2)NCCC(C(=O)O)c1cnc2ccccc2c1` (stereo not shown) [Example 84, 2-(quinolin-3-yl)-4-(5-(5,6,7,8-tetrahydro-1,8-naphthyridin-2-yl)pentanamido)butanoic acid], at HEK-293-αVβ3 cells [2], the activation at 10 µM is 31% and the EC50 was over 10000 nM. In addition, the IC50 on HEK-293-αVβ3 cells [3] was found to be 121 nM.
For `CC(C)Cc1cn(C(CCNC(=O)CCCCc2ccc3c(n2)NCCC3)C(=O)O)nn1` (stereo not shown) [Example 77, 2-(4-isobutyltriazol-1-yl)-4-[5-(5,6,7,8-tetrahydro-1,8-naphthyridin-2-yl)pentanoylamino]butanoic acid], at HEK-293-αVβ3 cells [2], the activation at 10 µM came out at 8% and the EC50 was over 10000 nM. The same compound registered a concentration for half-maximal inhibition (IC50) at HEK-293-αVβ3 cells [3] of 2020 nM.
On to `COc1ccccc1COC(=O)NC(CCNC(=O)CCCCc1ccc2c(n1)NCCC2)C(=O)O` (stereo not shown) [Example 63], for which, on HEK-293-αVβ3 cells [2], the activation at 10 µM is 16% and the EC50 is over 10000 nM. For the same compound, the IC50 against HEK-293-αVβ3 cells [3] was found to be 491 nM.
As to `COC(=O)[C@H](CCNC(=O)CCCCc1ccc2c(n1)NCCC2)NC(=O)OCc1ccccc1` [Example 2, Methyl (2S)-2-(benzyloxycarbonylamino)-4-[5-(5,6,7,8-tetrahydro-1,8-naphthyridin-2-yl)pentanoylamino]butanoate], on HEK-293-αVβ3 cells [2], the activation at 10 µM stood at 19% and the EC50 is over 10000 nM. For the same compound, the concentration for half-maximal inhibition (IC50) against HEK-293-αVβ3 cells [3] was 286 nM and 1680 nM.
For the compound `O=C(CCCCc1ccc2c(n1)NCCC2)NCCC(C(=O)O)n1cc(-c2ccccc2)nn1` (stereo not shown) [Example 76, 2-(4-phenyltriazol-1-yl)-4-[5-(5,6,7,8-tetrahydro-1,8-naphthyridin-2-yl)pentanoylamino]butanoic acid], at HEK-293-αVβ3 cells [2], the activation at 10 µM is 9% and the EC50 is over 10000 nM. On HEK-293-αVβ3 cells [3], this compound registered an IC50 of 939 nM.
For `O=C(CCCCc1ccc2c(n1)NCCC2)NCCC(NC(=O)OCC(F)(F)C(F)(F)F)C(=O)O` (stereo not shown) [Example 62], in that order: 12%, over 10000 nM and 628 nM.
For `O=C(CCCCc1ccc2c(n1)NCCC2)NCCC(Nc1nc2ccccc2s1)C(=O)O` (stereo not shown) [Example 70, 2-(1,3-Benzothiazol-2-ylamino)-4-[5-(5,6,7,8-tetrahydro-1,8-naphthyridin-2-yl)pentanoylamino]butanoic acid], in that order: 6%, over 10000 nM and 525 nM.
In the case of `O=C(CCCCc1ccc2c(n1)NCCC2)NCCC(NC(=O)OCc1ccccc1)C(=O)O` (stereo not shown) [Example 7, 2-(Benzyloxycarbonylamino)-4-[5-(5,6,7,8-tetrahydro-1,8-naphthyridin-2-yl)pentanoylamino]butanoic acid], at HEK-293-αVβ3 cells [2], the activation at 10 µM is 15% and the EC50 was over 10000 nM. The IC50 at HEK-293-αVβ3 cells [3] was 407 nM and 570 nM and 337 nM and 428 nM.
As to `CC(C)COC(=O)NC(CCNC(=O)CCCCc1ccc2c(n1)NCCC2)C(=O)O` (stereo not shown) [Example 38, 2-(Isobutoxycarbonylamino)-4-[5-(5,6,7,8-tetrahydro-1,8-naphthyridin-2-yl)pentanoylamino]butanoic acid], at HEK-293-αVβ3 cells [2], the activation at 10 µM is 20% and the 50% effective concentration (EC50) is over 10000 nM. Besides, the IC50 at HEK-293-αVβ3 cells [3] was 343 nM and 416 nM.
`O=C(CCCCc1ccc2c(n1)NCCC2)NCC[C@H](NC(=O)OCc1ccccc1)C(=O)O` [Example 3, (2S)-2-(Benzyloxycarbonylamino)-4-[5-(5,6,7,8-tetrahydro-1,8-naphthyridin-2-yl)pentanoylamino]butanoic acid]: on HEK-293-αVβ3 cells [2], the activation at 10 µM was found to be 16% and the EC50 is over 10000 nM. Moreover, the IC50 at HEK-293-αVβ3 cells [3] was 146 nM and 484 nM and 699 nM and 362 nM and 324 nM and 344 nM.
